We go through four molecules from ChEMBL document CHEMBL4190185 (Medchemcomm, 2016).

Data set [1] deals with Estrogen receptor beta (Mus musculus) (UniProt O08537). Nature of the data set: Activation of ERbeta in mouse calvarial osteoblasts assessed as induction of osteoblast differentiation by measuring increase in ALP activity at 1 pM using PNPP as substrate after 48 hrs by colorimetric method.
Data set [2] relates to Calvarial osteoblast. Nature of the data set: Cytotoxicity against mouse calvarial osteoblasts at 0.000001 to 1 uM after 48 hrs by MTT assay. Type of data set: cell-based. (Formazan colour is commonly taken as a measure of viable cells.)
Data set [3] addresses T1, Estrogen receptor (Mus musculus) (UniProt P19785).
T1 sequence (whole entry): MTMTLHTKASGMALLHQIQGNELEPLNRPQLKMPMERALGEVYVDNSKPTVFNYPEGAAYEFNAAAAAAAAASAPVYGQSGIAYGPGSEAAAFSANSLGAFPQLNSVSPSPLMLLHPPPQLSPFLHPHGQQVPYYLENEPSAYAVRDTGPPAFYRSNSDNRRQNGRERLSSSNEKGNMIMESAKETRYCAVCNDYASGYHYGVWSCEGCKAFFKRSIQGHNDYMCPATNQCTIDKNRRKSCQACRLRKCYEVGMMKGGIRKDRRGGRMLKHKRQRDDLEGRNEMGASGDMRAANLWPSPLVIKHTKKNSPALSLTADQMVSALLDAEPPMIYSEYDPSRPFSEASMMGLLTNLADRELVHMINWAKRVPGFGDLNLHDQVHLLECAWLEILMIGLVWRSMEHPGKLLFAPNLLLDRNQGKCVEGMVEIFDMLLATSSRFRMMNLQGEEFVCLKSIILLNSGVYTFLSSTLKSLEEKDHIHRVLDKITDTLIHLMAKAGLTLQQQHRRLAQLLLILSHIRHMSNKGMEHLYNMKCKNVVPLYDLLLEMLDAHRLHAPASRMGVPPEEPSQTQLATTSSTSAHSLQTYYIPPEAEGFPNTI
As to the kind of experiment: Up regulation of ERalpha expression in mouse calvarial osteoblasts at 1 to 100 pM after 48 hrs by Western blot analysis. Background: Immunoblotting shows a protein as a band on a membrane.

Data set [4] deals with Estrogen receptor beta (Mus musculus) (UniProt O08537). Nature of the data set: Up regulation of ERbeta expression in mouse calvarial osteoblasts at 1 to 100 pM after 48 hrs by Western blot analysis.
The target is the same in data set [5]. As to the kind of experiment: Activation of ERbeta in mouse calvarial osteoblasts assessed as induction of mineralization by measuring increase in calcium nodules at 1 pM supplemented with fresh medium containing compounds every 48 hrs for 18 days measured on day 18 by alizarin red-S staining based colorimetric method relative to control.
The test system of data set [6] is Calvarial osteoblast. Nature of the data set: Induction of osteoblast differentiation in mouse calvarial osteoblasts assessed as increase in BMP2 mRNA expression at 1 to 100 pM after 48 hrs by SYBR green1 staining based RT-qPCR analysis. Type of data set: functional, cell-based. (Quantitative PCR measures a nucleic acid by following its amplification.)
Data set [7] deals with Calvarial osteoblast. As to the kind of experiment: Induction of osteoblast differentiation in mouse calvarial osteoblasts assessed as increase in osterix mRNA expression at 1 to 100 pM after 48 hrs by SYBR green1 staining based RT-qPCR analysis. Type of data set: functional, cell-based.
The subject of data set [8] is Calvarial osteoblast. As to the kind of experiment: Induction of osteoblast differentiation in mouse calvarial osteoblasts assessed as increase in RUNX2 mRNA expression at 1 to 100 pM after 48 hrs by SYBR green1 staining based RT-qPCR analysis. Type of data set: functional, cell-based.

Structures are written as SMILES. Calls of active or inactive are those of the source. The calls are words filed in the database; no cut-off is given here.

Sequence of Estrogen receptor beta (Mus musculus) (O08537 whole entry): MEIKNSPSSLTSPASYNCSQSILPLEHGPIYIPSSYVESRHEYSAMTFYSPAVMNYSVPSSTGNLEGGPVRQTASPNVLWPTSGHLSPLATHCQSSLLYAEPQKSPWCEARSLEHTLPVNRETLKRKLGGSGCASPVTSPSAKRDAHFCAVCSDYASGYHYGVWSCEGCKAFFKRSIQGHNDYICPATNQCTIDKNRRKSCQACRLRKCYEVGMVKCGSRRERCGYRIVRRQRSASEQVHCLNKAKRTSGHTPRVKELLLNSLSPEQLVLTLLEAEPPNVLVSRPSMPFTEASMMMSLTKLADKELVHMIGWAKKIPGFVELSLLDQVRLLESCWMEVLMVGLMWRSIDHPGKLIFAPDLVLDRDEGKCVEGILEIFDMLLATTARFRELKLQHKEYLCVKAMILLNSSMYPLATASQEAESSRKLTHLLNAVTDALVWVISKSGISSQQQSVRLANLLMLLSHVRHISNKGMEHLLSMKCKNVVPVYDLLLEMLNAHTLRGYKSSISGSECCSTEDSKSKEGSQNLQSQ

As to `CCOC(=O)CCCCCOc1ccc2c(c1)OCC(c1ccc(OC)cc1)C2` (centres undefined), in data set [1], the result was Active. The Activity entry in the data set on Calvarial osteoblast [2] is “Non-Toxic”.
On to `COc1ccc(C2COc3cc(OCCCCCC(C)(C)O)ccc3C2)cc1` (centres undefined), for which the outcome in data set [1] was Active. In addition, the Activity result in the data set with Calvarial osteoblast [2] is reported as “Non-Toxic”.
As for `CCC(O)(CC)CCCCOc1ccc2c(c1)OCC(c1ccc(OC)cc1)C2` (centres undefined), the result in data set [1] was Active. The Activity entry in the data set on Calvarial osteoblast [2] is on record as “Non-Toxic”.
On to `COc1ccc(C2COc3cc(OCCCCC(C)(C)O)ccc3C2)cc1` (centres undefined), for which the outcome (in data set [3]; in data set [4]; in data set [1]; in the data set on Calvarial osteoblast [6]; in the data set with Calvarial osteoblast [7]; in the data set with Calvarial osteoblast [8]) was Active. The Activity in data set [5] is 20%; with Calvarial osteoblast [2] it was “Non-Toxic”.
